This passage reports IC50 results from patent US12655127B2, “Fused ring compound as Wee-1 inhibitor” (WIGEN BIOMEDICINE TECHNOLOGY (SHANGHAI) CO., LTD., priority 2021, dated 2026).

For this assay, the target named is recombinant protein Wee-1 (Homo sapiens, UniProt P30291). Put plainly: Inhibition of enzymatic activity of recombinant protein Wee-1 (HTRF). The assay is classed as biochemical. As to the method:
The inhibitory effect of the compounds on the enzyme activity of recombinant protein Wee-1 was determined by HTRF. The procedures are as follows:
After DMSO or serially diluted compounds (up to 200 nM, 1:5 serially diluted) and recombinant proteins were co-incubated in a kinase buffer at 37° C. for 30 min Fluorescein-PolyGAT and ATP were added, and then the reaction was started by the addition of a substrate. After incubation at room temperature for 90 min, an antibody and a detection solution were added, and after further incubation at room temperature for 60 min, fluorescence values were detected (excitation wavelength: 340 nm, emission wavelengths: 495 and 520 nm). The 520 nm/495 nm fluorescence intensity ratio value was calculated, and compared with that of the DMSO group, and then the inhibition percentages and IC50 values of the compounds were calculated.
For orientation: In TR-FRET formats the signal depends on donor and acceptor labels being close together.

The structures appear in SMILES notation.

Chain of recombinant protein Wee-1 (P30291 whole entry): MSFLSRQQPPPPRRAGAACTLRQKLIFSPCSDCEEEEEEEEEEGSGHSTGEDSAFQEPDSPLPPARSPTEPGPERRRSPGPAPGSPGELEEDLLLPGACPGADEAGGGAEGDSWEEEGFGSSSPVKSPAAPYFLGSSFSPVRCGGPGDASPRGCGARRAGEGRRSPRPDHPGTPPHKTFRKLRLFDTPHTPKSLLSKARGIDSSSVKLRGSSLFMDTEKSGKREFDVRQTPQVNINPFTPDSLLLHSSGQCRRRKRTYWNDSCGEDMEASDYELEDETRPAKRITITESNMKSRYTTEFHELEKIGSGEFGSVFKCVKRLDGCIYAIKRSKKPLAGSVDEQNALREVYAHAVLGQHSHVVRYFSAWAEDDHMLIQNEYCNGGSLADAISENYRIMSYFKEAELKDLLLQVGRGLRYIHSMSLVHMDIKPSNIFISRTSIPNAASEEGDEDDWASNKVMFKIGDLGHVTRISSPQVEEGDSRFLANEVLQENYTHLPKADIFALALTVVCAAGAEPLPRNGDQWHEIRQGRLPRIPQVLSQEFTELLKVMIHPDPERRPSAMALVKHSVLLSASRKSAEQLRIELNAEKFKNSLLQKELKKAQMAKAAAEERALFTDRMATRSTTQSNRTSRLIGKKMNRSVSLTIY

The term IC50 denotes the concentration that inhibits the measured activity by half. For `CN1Cc2cc(Nc3ncc(C#N)c(Nc4cccc(N=S(C)(C)=O)n4)n3)cc3c2[C@@H](CC3)C1` [Compound 52], the concentration for half-maximal inhibition (IC50) was in the range of 10 to 50 nM.
With `CN1Cc2cc(Nc3ncc(C#N)c(Nc4cccc(N=S(C)(C)=O)n4)n3)cc3c2C(C)(CC3)C1` (centres unmarked) [Compound 53], the IC50 is 10 to 50 nM.
To `CN1Cc2cc(Nc3ncc(C#N)c(Nc4cccc(N=S(C)(C)=O)n4)n3)cc3c2[C@](C)(CC3)C1` [Compound 54] belongs 10 to 50 nM; to `CN1Cc2cc(Nc3ncc(C#N)c(Nc4cccc(N=S(C)(C)=O)n4)n3)cc3c2[C@@](C)(CC3)C1` [Compound 55], 10 to 50 nM.
The figure for `CN1Cc2cc(Nc3ncc(C#N)c(Nc4cccc(N=S(C)(C)=O)n4)n3)cc3c2C(CCCC3)C1` (centres unmarked) [Compound 56] is 10 to 50 nM; for `CN1Cc2cc(Nc3ncc(C#N)c(Nc4cccc(N=S(C)(C)=O)n4)n3)cc3c2[C@H](CCCC3)C1` [Compound 57] it is ≤ 10 nM; for `CN1Cc2cc(Nc3ncc(C#N)c(Nc4cccc(N=S(C)(C)=O)n4)n3)cc3c2[C@@H](CCCC3)C1` [Compound 58] it is ≤ 10 nM.
The figure for `CN1Cc2cc(Nc3ncc(C#N)c(Nc4cccc(N=S(C)(C)=O)n4)n3)cc3c2C(C)(CCCC3)C1` (centres unmarked) [Compound 59] is ≤ 10 nM; for `CN1Cc2cc(Nc3ncc(C#N)c(Nc4cccc(N=S(C)(C)=O)n4)n3)cc3c2[C@](C)(CCCC3)C1` [Compound 60] it is ≤ 10 nM; for `CN1Cc2cc(Nc3ncc(C#N)c(Nc4cccc(N=S(C)(C)=O)n4)n3)cc3c2[C@@](C)(CCCC3)C1` [Compound 61] it is ≤ 10 nM.
`CN1Cc2cc(Nc3ncc(C#N)c(Nc4cccc(N=S(C)(C)=O)n4)n3)cc3c2C(CCCCC3)C1` (centres unmarked) [Compound 62]: the IC50 is ≤ 10 nM.
In the case of `CN1Cc2cc(Nc3ncc(C#N)c(Nc4cccc(N=S(C)(C)=O)n4)n3)cc3c2C(C)(CCCCC3)C1` (centres unmarked) [Compound 63], the IC50 is ≤ 10 nM.
To `CN1Cc2cc(Nc3ncc(C#N)c(Nc4cccc(N=S(C)(C)=O)n4)n3)cc3c2C(CCS3)C1` (centres unmarked) [Compound 65] belongs ≤ 10 nM; to `CN1Cc2cc(Nc3ncc(C#N)c(Nc4cccc(N=S(C)(C)=O)n4)n3)cc3c2C(COC3)C1` (centres unmarked) [Compound 66], ≤ 10 nM.
For `CN1Cc2cc(Nc3ncc(C#N)c(Nc4cccc(N=S(C)(C)=O)n4)n3)cc3c2C(CSC3)C1` (centres unmarked) [Compound 67], the IC50 was ≤ 10 nM.
The figure for `CN1Cc2cc(Nc3ncc(C#N)c(Nc4cccc(N=S(C)(C)=O)n4)n3)cc3c2C(C1)OCC3` (centres unmarked) [Compound 68] is ≤ 10 nM; for `CN1Cc2cc(Nc3ncc(C#N)c(Nc4cccc(N=S(C)(C)=O)n4)n3)cc3c2C(C1)SCC3` (centres unmarked) [Compound 69] it is ≤ 10 nM; for `CN1Cc2cc(Nc3ncc(C#N)c(Nc4cccc(N=S(C)(C)=O)n4)n3)cc3c2C(CO3)C1` (centres unmarked) [Compound 70] it is ≤ 10 nM.
To `CN1Cc2cc(Nc3ncc(C#N)c(Nc4cccc(N=S(C)(C)=O)n4)n3)cc3c2C(CS3)C1` (centres unmarked) [Compound 71] belongs ≤ 10 nM.
The figure for `CN1Cc2cc(Nc3ncc(C#N)c(Nc4cccc(N=S(C)(C)=O)n4)n3)cc3c2C(C1)OC3` (centres unmarked) [Compound 72] is ≤ 10 nM; for `CN1Cc2cc(Nc3ncc(C#N)c(Nc4cccc(N=S(C)(C)=O)n4)n3)cc3c2C(C1)SC3` (centres unmarked) [Compound 73] it is ≤ 10 nM.
As for `CN1Cc2cc(Nc3ncc(C#N)c(Nc4cccc(N=S(C)(C)=O)n4)n3)cc3c2C(CCCO3)C1` (centres unmarked) [Compound 74], the IC50 was ≤ 10 nM.
Turning to `CN1Cc2cc(Nc3ncc(C#N)c(Nc4cccc(N=S(C)(C)=O)n4)n3)cc3c2C(CCCS3)C1` (centres unmarked) [Compound 75], the IC50 was ≤ 10 nM.
The figure for `CN1Cc2cc(Nc3ncc(C#N)c(Nc4cccc(N=S(C)(C)=O)n4)n3)cc3c2C(CCOC3)C1` (centres unmarked) [Compound 76] is ≤ 10 nM.
Regarding `CN1Cc2cc(Nc3ncc(C#N)c(Nc4cccc(N=S(C)(C)=O)n4)n3)cc3c2C(CCSC3)C1` (centres unmarked) [Compound 77], the IC50 was ≤ 10 nM.
The figure for `CN1Cc2cc(Nc3ncc(C#N)c(Nc4cccc(N=S(C)(C)=O)n4)n3)cc3c2C(COCC3)C1` (centres unmarked) [Compound 78] is ≤ 10 nM; for `CN1Cc2cc(Nc3ncc(C#N)c(Nc4cccc(N=S(C)(C)=O)n4)n3)cc3c2C(CSCC3)C1` (centres unmarked) [Compound 79] it is ≤ 10 nM; for `CN1Cc2cc(Nc3ncc(C#N)c(Nc4cccc(N=S(C)(C)=O)n4)n3)cc3c2C(C1)OCCC3` (centres unmarked) [Compound 80] it is ≤ 10 nM.
The figure for `CN1Cc2cc(Nc3ncc(C#N)c(Nc4cccc(N=S(C)(C)=O)n4)n3)cc3c2C(C1)SCCC3` (centres unmarked) [Compound 81] is ≤ 10 nM.
To `CN1Cc2cc(Nc3ncc(C#N)c(Nc4cccc(N=S(C)(C)=O)n4)n3)cc3c2C(CCCCO3)C1` (centres unmarked) [Compound 82] belongs ≤ 10 nM; to `CN1Cc2cc(Nc3ncc(C#N)c(Nc4cccc(N=S(C)(C)=O)n4)n3)cc3c2C(CCCCS3)C1` (centres unmarked) [Compound 83], ≤ 10 nM; to `CN1Cc2cc(Nc3ncc(C#N)c(Nc4cccc(N=S(C)(C)=O)n4)n3)cc3c2C(C=CCC3)C1` (centres unmarked) [Compound 84], ≤ 10 nM.
As to `CN1Cc2cc(Nc3ncc(C#N)c(Nc4cccc(N=S(C)(C)=O)n4)n3)cc3c2C(CC=CC3)C1` (centres unmarked) [Compound 85], the IC50 was ≤ 10 nM.
To `CN1Cc2cc(Nc3ncc(C#N)c(Nc4cccc(N=S(C)(C)=O)n4)n3)cc3c2C(CCC=C3)C1` (centres unmarked) [Compound 86] belongs ≤ 10 nM; to `CN1Cc2cc(Nc3ncc(C#N)c(Nc4cccc(N=S(C)(C)=O)n4)n3)cc3c2C1CCCC3` (centres unmarked) [Compound 88], ≤ 10 nM.
Take `CN(C)C1Cc2cc(Nc3ncc(C#N)c(Nc4cccc(N=S(C)(C)=O)n4)n3)cc3c2C(CCC3)C1` (centres unmarked) [Compound 89]: the IC50 is ≤ 10 nM.
As for `CN(C)C1Cc2cc(Nc3ncc(C#N)c(Nc4cccc(N=S(C)(C)=O)n4)n3)cc3c2C1CCC3` (centres unmarked) [Compound 90], the IC50 is ≤ 10 nM.
The figure for `CCS(=O)(CC)=Nc1cccc(Nc2nc(Nc3cc4c5c(c3)CN(C)CC5CCC4)ncc2C#N)n1` (centres unmarked) [Compound 91] is ≤ 10 nM; for `CN1Cc2cc(Nc3ncc(C#N)c(Nc4cccc(N=S5(=O)CCC5)n4)n3)cc3c2C(CCC3)C1` (centres unmarked) [Compound 92] it is ≤ 10 nM; for `CN1Cc2cc(Nc3ncc(C#N)c(Nc4cccc(N=S5(=O)CCCC5)n4)n3)cc3c2C(CCC3)C1` (centres unmarked) [Compound 93] it is ≤ 10 nM.
The figure for `CN1Cc2cc(Nc3ncc(C(F)(F)F)c(Nc4cccc(N=S(C)(C)=O)n4)n3)cc3c2C(CCC3)C1` (centres unmarked) [Compound 94] is ≤ 10 nM; for `CN1Cc2cc(Nc3ncc(C4CC4)c(Nc4cccc(N=S(C)(C)=O)n4)n3)cc3c2C(CCC3)C1` (centres unmarked) [Compound 95] it is ≤ 10 nM; for `CN1Cc2cc(Nc3ncc(P(C)(C)=O)c(Nc4cccc(N=S(C)(C)=O)n4)n3)cc3c2C(CCC3)C1` (centres unmarked) [Compound 96] it is ≤ 10 nM.
The figure for `CN1Cc2cc(Nc3ncc(S(C)(=O)=O)c(Nc4cccc(N=S(C)(C)=O)n4)n3)cc3c2C(CCC3)C1` (centres unmarked) [Compound 97] is ≤ 10 nM; for `CN1Cc2cc(Nc3ncc(C(N)=O)c(Nc4cccc(N=S(C)(C)=O)n4)n3)cc3c2C(CCC3)C1` (centres unmarked) [Compound 98] it is ≤ 10 nM.
Consider `CN1Cc2cc(Nc3ncc(-c4ccoc4)c(Nc4cccc(N=S(C)(C)=O)n4)n3)cc3c2C(CCC3)C1` (centres unmarked) [Compound 99], for which the IC50 is ≤ 10 nM.
On to `CN1Cc2cc(Nc3ncc(Br)c(Nc4cccc(N=S(C)(C)=O)n4)n3)cc3c2C(CCC3)C1` (centres unmarked) [Compound 100], for which the IC50 is ≤ 10 nM.
